target: G-protein coupled receptor 55 (Homo sapiens, UniProt Q9Y2T6); assay: GPR55 agonists via beta-arrestin recruitment, primary screen, imaging, U2OS cells, beta-arrestin-GFP redistribution (AID 1961)
Sequence (Q9Y2T6 whole entry): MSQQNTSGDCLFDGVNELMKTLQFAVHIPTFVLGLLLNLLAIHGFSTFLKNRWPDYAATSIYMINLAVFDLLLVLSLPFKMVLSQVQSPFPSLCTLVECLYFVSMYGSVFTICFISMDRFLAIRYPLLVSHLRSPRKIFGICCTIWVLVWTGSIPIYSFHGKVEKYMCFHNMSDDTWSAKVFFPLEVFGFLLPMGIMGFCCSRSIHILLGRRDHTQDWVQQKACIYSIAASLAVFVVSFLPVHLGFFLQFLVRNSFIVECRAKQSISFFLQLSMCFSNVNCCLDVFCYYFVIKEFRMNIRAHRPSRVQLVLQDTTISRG

Row | SMILES | EC50 [µM]
1 | COc1ccc(C2c3sc4nc(C)cc(C)c4c3OC(=N)C2C#N)cc1 (configuration not stated) [2-amino-4-(4-methoxyphenyl)-7,9-dimethyl-4H-pyrano[2',3':4,5]thieno[2,3-b]pyridine-3-carbonitrile] | 3.41
2 | Cc1ccc(NS(=O)(=O)c2cc([N+](=O)[O-])ccc2N=NCc2sc(N3CCOCC3)nc2-c2ccccc2)c(C)c1 [MLS000408840] | 0.5
3 | N#CC1C(=N)OC2=C(CC/C2=C\c2ccccc2)C1c1ccccc1 (configuration not stated) [SMR000176483] | 32
4 | N#CC1C(=O)NC(c2ccc(-c3cc(Cl)ccc3Cl)o2)N(c2ccccc2)C1=S (configuration not stated) [MLS000592167] | 32
5 | C=c1[nH]n(-c2ccc(C(=O)O)cc2)c(=O)c1=Cc1ccc(-c2ccccc2F)o1 [4-((4E)-4-{[5-(2-fluorophenyl)-2-furyl]methylene}-3-methyl-5-oxo-4,5-dihydro-1H-pyrazol-1-yl)benzoic acid] | 21.3
6 | CC(C)CN1C(=O)/C(=N\NC(=O)c2cccc(S(=O)(=O)N3CCCCC3)c2)c2ccccc21 [MLS000417389] | 4.75
7 | COC1=CC(=Cc2c(-c3ccccc3)[nH]oc2=O)C=C(Cl)C1=O [4-[(Z)-(3-chloro-5-methoxy-4-oxo-1-cyclohexa-2,5-dienylidene)methyl]-3-phenyl-2H-isoxazol-5-one] | 32

From BindingDB's records for doi:10.7270/Q2GF0RZ3 (Burnham Center For Chemical Genomics, 2010)
